Test results: US6210901A, “Specific binding substances for antibodies and their use for immunoassays or vaccines” (Roche Diagnostics GmbH, priority 1994, dated 2001)

What was measured:
[1] = test system: antibodies which are directed against the core-epitope of the HCV virus; assay: Immunoassay (streptavidin tube, peroxidase/ABTS) with biotinylated peptides; reactivity relative to the natural epitope core2m; type: binding; parameters: key to serum A rel. reactivity / serum B rel. reactivity: ratio to reference antigen core2m at the same concentration; details: for pos. control rel. reactivity: positive control serum, relative to core2m at same concentration; for serum A rel. reactivity: positive serum A; for serum B rel. reactivity: positive serum B
Protocol: Procedure for an immunoassay using biotinylated binding substances according to the invention against antibodies which are directed against the core-epitope of the HCV virus.
In the binding substances that were used one or several CO--NH peptide binding groups were replaced according to the invention (core2mI-core2mVI)compared to the natural epitope "core2m".
20 μl serum was placed in each case in streptavidin-coated ES 22 tubes from the Boehringer Mannheim Company (negative serum, positive serum, positive sera A-C). Then 1000 μl peptide solution (core 2m or core 2m I-VII concentration 100 ng/ml in potassium phosphate buffer 40 mmol/l, pH 7.0) was added by pipette and allowed to stand for 60 min in an ES 22 instrument from the Boehringer Mannheim Company. After 60 min incubation the peptide/serum solution is removed by pipette and the tubes are washed with test wash solution: 40 mmol/l potassium phosphate buffer, pH 7.0. Then 1000 μl peroxidase conjugate solution (peroxidase conjugated to an anti Fcγ antibody, 0.5 U/ml) is added by pipette and incubated for a further 60 min. The conjugate solution is removed by pipette and the tube is washed with washing solution. Afterwards 1000 μl ABTS solution (1.9 mmol/l) is added by pipette and it is incubated for a further 60 min. After 60 min incubation the solution is pipetted from the tube into a photometer and measured at 405 nm. […] The reactivities are derived from the measured result of the immunoassay relative to a standard curve.
The relative concentration used of the peptide antigens I-VI was derived from their HPLC integrals. The reactivity of the antigens I-VI was determined relative to the reference antigen core2m at the same concentration.

pancreatin = assay: HCV core2m stress with pancreatin (protease degradation, analytical HPLC); type: in vitro ADME; details: for Area after 55 min (HPLC peptide peak) / Area after 125 min (HPLC peptide peak): pancreatin c = 1 mg/ml, 50 μl to 200 μl peptide
Description: The protease stability of a binding substance according to the invention can be determined by exposing it to e.g. pancreatin, a mixture of frequently occurring proteases (including carboxy-peptidase A and B, trypsin, pepsin, chymotrypsin, elastase) or pronase (including aminopeptidase, carboxypeptidase, alkaline and neutral proteinase). The reduced enzymatic degradation of the binding substance can be determined by HPLC analysis of the appearance of peptide fragments over time.
Experimental procedure for core2m digestion with pancreatin.
Firstly core2m solutions were prepared in distilled water at an approximate c=1-3 mg/ml. These solutions were injected into the analytical HPLC (injection volume=40 μl).
These solutions were now diluted such that the area had to be […] when injected again into the HPLC. e.g. Area of the core2m IV solution was 600 000 on the analytical HPLC for an injection volume of 40 μl. Now two parts of this solution are diluted with one part of distilled water.
In each case 200 μl of these adjusted core2m solutions were admixed with 50 μl pancreatin solution (c=1 mg/ml).
A sample of these solutions was injected into the analytical HPLC after 55 min and after 125 min. As a reference a 200 μl sample of each core2m solution was admixed with 50 μl distilled water and injected into the analytical HPLC.
The percentage degradation of the respective peptide can be determined from the areas of the peptide peaks in the analytical HPLC.
Core2m solutions were adjusted to HPLC areas of 400 000 in 40 μl
Pancreatin solution c = 1 mg/ml in H2 O
200 μl of the adjusted core2m solution was allowed to react with 50

With “Bi-XUZUPQDVKFPGGGQIVGGV [core2m, reference compound]” the “pos. control rel. reactivity” value [1] was 1.140, the “serum A rel. reactivity” value [1] was 1.310 and the “serum B rel. reactivity” value [1] was 1.170. The “Serum C rel. reactivity” value ([1]; positive serum C) was 1.140, the “Area after 55 min (HPLC peptide peak)” value (pancreatin) was 0 and the “Area after 125 min (HPLC peptide peak)” value (pancreatin) was 0. For the same substance, the “% (percentage resistance towards protease degradation) after 55 min” value (pancreatin; pancreatin) was 0%, the “resistance towards protease degradation” value (pancreatin; pancreatin, 55 min and 125 min) was 0% and the “% (percentage resistance towards protease degradation) after 125 min” value (pancreatin; pancreatin) was 0%.

In the case of Bi-XUZUPQDVKFPGGGQIVI V [core2mI], the “binding of the artificial epitopes (in words)” value ([1]; modified epitopes, Example 1) is reported as “bind specifically and selectively”, the “pos. control rel. reactivity” value [1] is reported as 1.140 and the “serum A rel. reactivity” value [1] is reported as 0.621. For the same substance, the “serum B rel. reactivity” value [1] was 0.959, the “Area after 55 min (HPLC peptide peak)” value (pancreatin) was 3252704 and the “Area after 125 min (HPLC peptide peak)” value (pancreatin) was 2460332. The “% (percentage resistance towards protease degradation) after 55 min” value (pancreatin; pancreatin) was 100% and the “% (percentage resistance towards protease degradation) after 125 min” value (pancreatin; pancreatin) was 76%.

In the case of Bi-XUZUPQDVKFP4 QIVGG V [core2mIV], the “pos. control rel. reactivity” value [1] is reported as 0.370, the “serum A rel. reactivity” value [1] is reported as 0.250 and the “serum B rel. reactivity” value [1] is reported as 0.210. The “Area after 55 min (HPLC peptide peak)” value (pancreatin) was 3057359, the “Area after 125 min (HPLC peptide peak)” value (pancreatin) was 2715127 and the “% (percentage resistance towards protease degradation) after 55 min” value (pancreatin; pancreatin) was 90%. For the same substance, the “% (percentage resistance towards protease degradation) after 125 min” value (pancreatin; pancreatin) was 80%.
